For data set [1], the target named is T1, [V390I/Y410E/E274V]-CfEcR (Choristoneura fumiferana, UniProt O77240).
T1 construct: assay construct b835
In kind it is cell-based. The conditions noted are these: 3T3 Cells; for RMFI (relative maximum fold induction): relative to GS-E ligand. The method, then:
(§1) Cellular gene switch assays were performed by transiently transfecting the following constructs in mouse embryonic fibroblast cells (NIH3T3). The wild-type D, E and F domains from Choristoneura fumiferana EcR or its V390I/Y410E/E274V mutant were fused to GAL4-DBD and placed under the control of the CMV promoter in the pBIND vector (Promega Corporation, Madison, Wis., USA). The DEF domains of EcRs shown were amplified using primers designed based on 20-25 nt sequences at the 5′ and 3′ ends. Restriction enzyme sites EcoR I/BamH I and Xba I were added to 5′ and 3′ primers respectively. The PCR products were digested with appropriate restriction enzymes and cloned into pBIND vector. The EcR LBDs cloned into pBIND vector were verified by sequencing. A chimeric RXR from Homo sapiens RXRP and Locusta migratoria RXR, fused to VP16-AD and placed under the control of an SV40e promoter, was constructed as previously described (Kumar P & Katakam A in Gene Transfer, Friedmann T and Rossi J, eds, pp. 643-651 (2007), Cold Spring Harbor Laboratory Press, Cold Spring Harbor, N.Y.). The inducible luciferase reporter plasmid pFRLuc (Stratagene Cloning Systems, La Jolla, Calif., USA), contains five copies of the GAL4 response element and a synthetic minimal promoter.
(§2) NIH3T3 cells were maintained at 37′C and 5% CO2 in Dulbecco's modified Eagle's medium (DMEM) supplemented with 10% bovine calf serum, both obtained from Mediatech Inc., Manassas, Va. Cells were planted in a 96-well plate at a density of 2,500 cells/well in 50 μL of growth medium. The following day cells were first treated with 35 μL of serum-free DMEM containing dimethyl sulfoxide (DMSO; control) or a DMSO solution containing ligand. Cells were then transfected with 15 μl of serum-free DMEM containing 0.04 μg of EcR construct, 0.04 ug of RXR construct, and 0.16 μg of luciferase reporter construct per well, using SuperFect™ transfection reagent (Qiagen Inc., Valencia, Calif., USA) according to the manufacturer's instructions. Ligands were tested at 8 doses from 0.01-33 μM and the final DMSO concentration was 0.33% in both control and treatment wells. After a 48 hour post-treatment and transfection incubation, the cells were assayed for luciferase activity using the Bright-Glo™ Luciferase Assay System (Promega Corporation, Madison, Wis., USA) following the manufacturer's instructions. EC50 values were measured minimally in duplicate.
(§3) Luciferase reporter gene expression was measured 48 h after cell treatment using Bright-Glo™ Luciferase Assay System from Promega (E2650). Luminescence was detected at room temperature using a Dynex MLX microtiter plate luminometer.
(§4) Each assay was conducted in two separate wells, and the two values were averaged. Fold inductions were calculated by dividing relative light units (“RLU”) in ligand treated cells with RLU in DMSO treated cells. EC50s were calculated from dose response data using a three-parameter logistic model. Relative Max FI was determined as the maximum fold induction of the tested ligand (an embodiment of the invention) observed at any concentration relative to the maximum fold induction of GS™-E ligand (3,5-dimethyl-benzoic acid N-tert-butyl-N′-(2-ethyl-3-methoxy-benzoyl)-hydrazide) observed at any concentration.

The target of data set [2] is wild-type Choristoneura fumiferana EcR (D, E and F domains) (Choristoneura fumiferana, UniProt O77240). It is filed as cell-based. The conditions noted are these: WT-CtEcR, 3T3 Cells; for RMFI (relative maximum fold induction): relative to GS-E ligand. The method, then:
as §1, §2, §3, §4

For orientation: pEC50 means the negative decadic logarithm of the EC50, by convention in mol/L.

pEC50: −log10 of the molar value. Where two headings read alike, the source gives them in different places.

For the compound `CCC[C@@H](N(NC(=O)c1ccc2c(c1C)OCO2)C(=O)c1cc(C)cc(C)c1)C(C)(C)C` [Example 20, (R)-3,5-Dimethyl-benzoic acid N-(1-tert-butyl-butyl)-N′-(4-methyl-benzo[1,3]dioxole-5-carbonyl)-hydrazide], in data set [1] (R), the pEC50 was 9.59 and the “RMFI (relative maximum fold induction)” value worked out at 1.01. Besides, in data set [2] (R), the pEC50 is 8.12 and the “RMFI (relative maximum fold induction)” value is recorded as 1.02.

For the compound `CCC[C@H](N(NC(=O)OC(C)(C)C)C(=O)c1cc(C)cc(C)c1)C(C)(C)C` [Example 48, (S)—N′-(1-tert-Butyl-butyl)-N′-(3,5-dimethyl-benzoyl)-hydrazinecarboxylic Acid tert-butyl Ester], in data set [1] (S), the pEC50 is 5.18 and the “RMFI (relative maximum fold induction)” value stood at 0.20. Also, in data set [2] (S), the pEC50 was under 4.48 and the “RMFI (relative maximum fold induction)” value was determined as 0.03.

Consider `CCC[C@H](N(NC(=O)c1cc(C)oc1C)C(=O)c1cc(C)cc(C)c1)C(C)(C)C` [Example 44, (S)-3,5-Dimethyl-benzoic acid N-(1-tert-butyl-butyl)-N′-(2,5-dimethyl-furan-3-carbonyl)-hydrazide], for which, in data set [1] (S), the pEC50 was about 5.70 and the “RMFI (relative maximum fold induction)” value is given as 0.49. For the same compound, in data set [2] (S), the pEC50 is 5.15 and the “RMFI (relative maximum fold induction)” value amounted to 0.32.

Turning to `CCC[C@@H](N(NC(=O)c1ccccc1OC)C(=O)c1cc(C)cc(C)c1)C(C)(C)C` [Example 4, (R)-3,5-Dimethyl-benzoic acid N-(1-tert-butyl-butyl)-N′-(2-meihoxy-benzoyl)-hydrazide], the pEC50 is 7.00 in data set [1] (R) and 6.00 in data set [2] (R). The “RMFI (relative maximum fold induction)” value worked out at 0.52 in data set [1] (R) and 0.38 in data set [2] (R).

Take `CCCC(N(NC(=O)c1ccc2ccccc2c1)C(=O)c1cc(C)cc(C)c1)C(C)(C)C` (racemic) [rac-24]: the pEC50 is 7.21 in data set [1] (rac, read-out: EC50) and about 6.30 in data set [2] (rac, read-out: EC50). Also, the “RMFI (relative maximum fold induction)” value in data set [1] (rac) is reported as 0.62; in data set [2] (rac), 0.44.

In the case of `CCC[C@H](N(NC(=O)c1ccccc1Cl)C(=O)c1cc(C)cc(C)c1)C(C)(C)C` [Example 35, (S)-3,5-Dimethyl-benzoic acid N-(1-tert-butyl-butyl)-N′-(2-chloro-benzoyl)-hydrazide], the pEC50 is about 7.70 in data set [1] (S) and about 6.00 in data set [2] (S). Also, the “RMFI (relative maximum fold induction)” value in data set [1] (S) worked out at 0.77; in data set [2] (S), 0.44.

Take `C=CC[C@H](C1CCCCC1)N(NC(=O)c1cccc(OC)c1C)C(=O)c1cc(C)c(OC)c(C)c1` [Example 61, (R)-4-Methoxy-3,5-dimethyl-benzoic acid N-(1-cyclohexyl-but-3-enyl)-N′-(3-methoxy-2-methyl-benzoyl)-hydrazide]: the figures for the pEC50 in data set [1] (R) and in data set [2] (R) were 5.99 and about 5.48, respectively. In addition, the “RMFI (relative maximum fold induction)” value came out at 0.67 in data set [1] (R) and 0.33 in data set [2] (R).

For `CCC[C@H](C1CCCCC1)N(NC(=O)c1ccc(CC)cc1)C(=O)c1cc(C)cc(C)c1` [Example 55, (R)-3,5-Dimethyl-benzoic acid N-(1-cyclohexyl-butyl)-N′-(4-ethyl-benzoyl)-hydrazide], in data set [1] (R), the pEC50 was about 7.15 and the “RMFI (relative maximum fold induction)” value is given as 0.42. In data set [2] (R), the pEC50 is about 5.70 and the “RMFI (relative maximum fold induction)” value was found to be 0.26.

Consider `CCCC(N(NC(=O)c1ccc(CC)cc1)C(=O)c1cc(C)cc(C)c1)C(C)(C)C` (racemic) [rac-12], for which the pEC50 is about 9.22 in data set [1] (rac, read-out: EC50) and about 7.70 in data set [2] (rac, read-out: EC50). The “RMFI (relative maximum fold induction)” value in data set [1] (rac) was 0.96; in data set [2] (rac) it was 0.79.

As to `CCCC(N(NC(=O)c1ccc(Cl)nc1)C(=O)c1cc(C)cc(C)c1)C(C)(C)C` (racemic) [rac-28], the pEC50 in data set [1] (rac, read-out: EC50) is 7.33; in data set [2] (rac, read-out: EC50), 6.33. The “RMFI (relative maximum fold induction)” value in data set [1] (rac) was 0.68; in data set [2] (rac), 0.70.

Regarding `CCC[C@@H](C1CCCCC1)N(NC(=O)c1cccc(OC)c1)C(=O)c1cc(C)cc(C)c1` [Example 58, (S)-3,5-Dimethyl-benzoic acid N-(1-cyclohexyl-butyl)-N′-(3-methoxy-benzoyl)-hydrazide], the pEC50 was 6.92 in data set [1] (S) and about 5.48 in data set [2] (S). In addition, the “RMFI (relative maximum fold induction)” value is 0.42 in data set [1] (S) and 0.25 in data set [2] (S).

Consider `CCCC(N(NC(=O)c1c(Cl)cccc1Cl)C(=O)c1cc(C)cc(C)c1)C(C)(C)C` (racemic) [rac-16, rac-3,5-dimethyl-benzoic acid N-(1-tert-butyl-butyl)-N′-(2,6-dichloro-benzoyl)-hydrazide], for which, in data set [1] (rac), the negative logarithm of the EC50 (pEC50) was about 7.52 and the “RMFI (relative maximum fold induction)” value is 0.73. Besides, in data set [2] (rac), the pEC50 is about 6.52 and the “RMFI (relative maximum fold induction)” value stood at 0.43.

Take `CCCC(N(NC(=O)c1ccccc1Br)C(=O)c1cc(C)cc(C)c1)C(C)(C)C` (racemic) [rac-7]: the pEC50 in data set [1] (rac, read-out: EC50) is about 8.52; in data set [2] (rac, read-out: EC50) it was 7.07. For the same compound, the “RMFI (relative maximum fold induction)” value is on record as 1.28 in data set [1] (rac) and 0.63 in data set [2] (rac).

Consider `CCCC(N(NC(=O)c1ccccc1OC)C(=O)c1cc(C)cc(C)c1)C(C)(C)C` (racemic) [rac-4], for which the pEC50 in data set [1] (rac, read-out: EC50) was about 6.52; in data set [2] (rac, read-out: EC50), about 5.70. Also, the “RMFI (relative maximum fold induction)” value in data set [1] (rac) turned out to be 0.72; in data set [2] (rac) it was 0.32.

For the compound `CCCC(N(NC(=O)c1ccc2c(c1C)OCCO2)C(=O)c1cc(C)cc(C)c1)C(C)(C)C` (racemic) [rac-21], the pEC50 in data set [1] (rac, read-out: EC50) is about 10.00; in data set [2] (rac, read-out: EC50), 8.88. Besides, the “RMFI (relative maximum fold induction)” value in data set [1] (rac) came out at 0.85; in data set [2] (rac), 0.86.

Turning to `CCCC(N(NC(=O)c1c(Cl)cccc1Cl)C(=O)c1cc(C)cc(C)c1)C(C)(C)C` (racemic) [rac-3], the pEC50 in data set [1] (rac, read-out: EC50) was 7.91; in data set [2] (rac, read-out: EC50), 7.00. The “RMFI (relative maximum fold induction)” value in data set [1] (rac) is 0.97.

In the case of `CCCC(N(NC(=O)c1ccc(C)cc1)C(=O)c1cc(C)cc(C)c1)C(C)(C)C` (racemic) [rac-11], the pEC50 in data set [1] (rac, read-out: EC50) is 8.20; in data set [2] (rac, read-out: EC50) it was 7.05. The “RMFI (relative maximum fold induction)” value in data set [1] (rac) was found to be 0.73; in data set [2] (rac) it was 0.66.

For the compound `CCC[C@H](N(NC(=O)c1ccc(Cl)nc1)C(=O)c1cc(C)cc(C)c1)C(C)(C)C` [Example 46, (S)-3,5-Dimethyl-benzoic acid N-(1-tert-butyl-butyl)-N′-(6-chloro-pyridine-3-carbonyl)-hydrazide], in data set [1] (S), the pEC50 is 5.40 and the “RMFI (relative maximum fold induction)” value amounted to 0.42.

In the case of `CCC[C@@H](N(NC(=O)OC(C)(C)C)C(=O)c1cc(C)cc(C)c1)C(C)(C)C` [Example 49, (R)—N′-(1-tert-Butyl-butyl)-N′-(3,5-dimethyl-benzoyl)-hydrazinecarboxylic acid tert-butyl Ester], in data set [1] (R), the pEC50 is 5.56 and the “RMFI (relative maximum fold induction)” value stood at 0.59. Further, in data set [2] (R), the pEC50 is 4.82 and the “RMFI (relative maximum fold induction)” value is 0.15.

Consider `CCC[C@H](N(NC(=O)c1ccc2ccccc2c1)C(=O)c1cc(C)cc(C)c1)C(C)(C)C` [Example S-24], for which the pEC50 in data set [2] (S, read-out: EC50) is 5.27. Also, the “RMFI (relative maximum fold induction)” value in data set [2] (S) amounted to 0.13.

These data come from US20200270225A1, “Chiral Diacylhydrazine Ligands for Modulating the Expression of Exogenous Genes via an Ecdysone Receptor Complex” (Intrexon Corporation, priority 2007, published 2020).
